According to patent US9133103B2, “N-substituted benzenepropanamide and benzenepropenamide for use in the prevention or the treatment of affective disorders” (Novaremed, Ltd., priority 2011, dated 2015):

Experiments:
Format in all cases: in vivo
Balb/c mice [1] = experiment: Open field test (exploratory locomotor activity); details: 0.1 or 5 mg/kg oral, subchronic; for time spent in zones 2 and 3: in comparison to control mice, FIG. 1F; for locomotor activity (distance moved, velocity, strong mobility and immobility): recorded over 20 minutes, in comparison to the control mice, FIG. 1A-1D
Procedure: This method is one of the most popular in evaluation of animals' behaviour. It tests both motility parameters and anxiety (Prut et al). An individual mouse is placed in a novel plexiglass arena of 50×50 cm the floor of which is divided into 3 digital zones. The outer peripheral zone 1, the medial zone 2 and the most central zone 3. The animal behaviour in the open field is recorded by videotaping for 20 min and analyzed subsequently digitally using Noldus software for animal behaviour. The measurements include general motility: distance moved, velocity and strong mobility, as well as anxiety parameters including frequency of visits to the central area, time spent in the inner field, and number of rearing events in the centre. The more the animal stays and performs in the centre, it is less anxious.
40, 9 week old naïve male Balb/c mice were divided in 5 groups (8 mice in each group) and treated daily (0 min, p.o.) for two weeks, as follows: • 1. Control—0.5% DMSO 0.3 ml/mouse, po (3 ml/10 mice) (15 μl DMSO+2994 μl DDW), n=8. • 2. Diclofenac 10 mg/Kg=0.3 mg/0.3 ml/mouse, i.p. (3 ml/10 mice), n=8 • 3. 135S 0.5 mg/Kg=0.015 mg/0.3 ml/mouse, po (3 ml/10 mice) (135S 0.15 mg (Stock 50 mg/1 ml DMSO) 3 μl+2997 μl DDW), n=8 • 4. 135S 2.5 mg/kg=0.075 mg/0.3 ml/mouse, po (3 ml/10 mice) ([…] 0.75 mg (Stock 50 mg/1 ml DMSO) 15 μl+2985 μl DDW), n=8 • 5. 135S 0.1 mg/Kg=0.003 mg/0.3 ml/mouse, po (3 ml/10 mice) (135S […] (Stock 50 mg/1 ml DMSO) 0.6 μl+2999.4 μl DDW), n=8
Fifteen days after treatment, the five groups of mice listed above were subjected to the open field test for […]. The activity of the mice was assessed by an EthoVision video track system (Noldus Ltd.) A centre zone (“zone 3”; approximately 16% of the total area), a border area (“zone 1”; an 8 cm wide border around the edge of the arena) and an intermediate zone (“zone 2”; the remaining area) were defined. Quantitative parameters, such as the distance travelled and average speed, were recorded for the centre zone and the entire arena.
An Open Field test measures activity in a novel environment and can be used to assess a combination of locomotor activity, exploratory drive, neophobia, agoraphobia and other aspects of anxiety or fear in mice, as well as motor function. Treatment using a 0.1 mg/kg or 5 mg/kg dose of 135S or 175S compound was compared to the effect of treatment with a control substance (DMSO) or Diclofenac. The mice were placed in the centre of the arena and their activity and behaviour was recorded over a period of 20 minutes in respect of the distance moved (cm), velocity (cm/s), strong mobility and immobility. The ratio of total duration between the inner zones 2 and 3 in comparison to the outer zone 1 was recorded. The total duration in the inner zones 2 and 3 was also determined.

Balb/c mice [2] = experiment: Forced swim test
From the text: This is one of the most widely used tools for screening antidepressant activity preclinically in an acute test and was first described by Porsolt et al (1977). The test is based on the observation that rats and mice develop an immobile posture when placed in an inescapable cylinder of water. This behavior is considered to be a behavioural despair as opposed to an active form of coping with stressful conditions. An antidepressant will reduce immobility and increase motivated behaviour of the rodent to escape from the despaired conditions. This is evidenced by increase in time of swimming, distance moved, velocity and attempts to climb the walls (strong mobility). FST is considered a good screen tool with good reliability and predictive validity.
The test in male mice (Balb/c Harlan IL) was conducted after 4 days of drug administration (90 min post last drug administration). Round glass cylinders 18 cm diameter and 20 cm depth were used. Water temperature was 24-28° C. Motivated behaviour was defined by immobility, swimming and strong mobility. Immobility in the animals was defined by activity lower than 10% movement of the centre of gravity of the animal. Swimming was defined by the distance and the velocity of the animal, and climbing was related to strong mobility (movement of centre of gravity more than 30%). Animals were dropped to the cylinder for 6 min and scoring was performed in the last 4 min after 2 min of adaptation. All results were analyzed by the Noldus (Holland) system including a camera and software for animal behaviour analyses.
Mice were treated with compound 135S at three different concentrations (0.1 mg/kg, 0.5 mg/kg and 2.5 mg/kg), or with the anti-depressant Fluoxetine (10 mg/kg) administered orally in a daily dose for 14 days. The forced swim test was performed on […].
In a first trial, the mice were placed in a tank of water, from which they could not escape. The mobility and immobility of the mice was monitored. In a second trial, the same mice were placed back into the tank. The mobility and immobility of the mice was again monitored.

Balb/c mice [3] = experiment: Elevated plus maze; details: 0.1, 0.5, 2.5 mg/kg p.o., test on day 8, 15 minutes, in comparison to control mice
Procedure: This model uses the natural fear of rodents to avoid open and elevated places. The apparatus consists of a plus-maze with two enclosed and two opposite open arms, elevated above the floor. […] This is one of the most widely used models to study effects of anxiety-like behaviour. The maze consisted of two opposing open arms (40×10 cm) and two opposing closed arms (40×10 cm, with 40 cm walls) on a platform 50 cm above the ground.
The groups of mice were treated as in Example 2 and an elevated plus maze test was carried out on day 8. This test was used as a further test of the anxiolytic effect of the drugs of the invention.
The mice were placed in the centre of the maze facing an open arm and were allowed to freely explore the maze for 15 minutes. During this time, their behaviour was observed.

Balb/c mice [4] = experiment: Marble burying test; details: 0.1, 0.5 and 2.5 mg/kg p.o., test on day 15, 20 glass marbles, 20 minutes; against control mice; FIG. 4
Procedure: The marble burying test is a useful model of neophobia, anxiety and obsessive-compulsive behaviour. It has also been proposed that the test may have predictive validity for the screening of novel antidepressants, anxiolytics and antipsychotics. Mice can be expected to bury roughly 75% of the marbles in a 30 min period, although it varies with strain and gender. In this study, male Balb/c mice were used.
The groups of mice were treated as in Example 2 and a marble burying test was carried out on day 15. The mice were placed individually into a cage containing 20 glass marbles and exposed for 20 minutes. The number of marbles buried by the mice was monitored. […] This test provides further evidence of the anxiolytic properties of this compound, in particular with respect to treatment of obsessive compulsive disorder (OCD).

[5] = 0.1, 0.5 and 2.5 mg/kg oral, in comparison to control mice, FIG. 2A-2C

| Structure (SMILES) | time spent in zones 2 and 3 (Balb/c mice [1]) | locomotor activity (distance moved, velocity, strong mobility and immobility) (Balb/c mice [1]) | immobility (Balb/c mice [2]; [5]) | mobility (Balb/c mice [2]; [5]) | anti-depressant effect compared with Fluoxetine (Balb/c mice [2]; 135S 0.1, 0.5 and 2.5 mg/kg against Fluoxetine 10 mg/kg, oral) | exploration of the maze (Balb/c mice [3]; FIG. 3A-3D) | time spent within the open arms (Balb/c mice [3]; FIG. 3B) | number of marbles buried (Balb/c mice [4]) |
| --- | --- | --- | --- | --- | --- | --- | --- | --- |
| CC(O)COCC(Cc1ccc(O)cc1)NC(=O)CCc1ccccc1 (stereo not shown) [Compound 135S] | significant increase | did not show a significant effect | decrease | increase | greater than that resulting from treatment of mice with the common anti-depressant drug Fluoxetine | increased exploration of the maze | increased time spent within the open arms | significantly less marbles than control mice |
| O=C(CCc1ccccc1)NC(COCCO)Cc1ccc(O)cc1 (stereo not shown) [Compound 175S] | significant increase | did not show a significant effect | – | – | – | – | – | – |
